Results: patent US9873696B2, “Neprilysin inhibitors” (THERAVANCE BIOPHARMA R&D IP, LLC, priority 2010, dated 2018)

target: T1, human NEP (Homo sapiens, UniProt P08473); test: In vitro enzyme inhibition assay at human NEP (Assay 1); assay type: biochemical; settings: recombinant enzyme, fluorogenic peptide substrate, 37° C.
T1 construct: purchased R&D Systems, Minneapolis, Minn; 1182-ZN
In short: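 Recombinant enzyme preincubated with compound 30 min at 37 °C, then 10 μM Mca-D-Arg-Arg-Leu-Dap-(Dnp)-OH added in 50 mM HEPES pH 7.5, 100 mM NaCl, 0.01% Tween-20, 10 μM ZnSO4; stopped after 20 min with acetic acid. Fluorescence read at 320/405 nm; Ki from nonlinear fit of v=v0/[1+(I/K′)], reported as pKi.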

T1 sequence (P08473 whole entry): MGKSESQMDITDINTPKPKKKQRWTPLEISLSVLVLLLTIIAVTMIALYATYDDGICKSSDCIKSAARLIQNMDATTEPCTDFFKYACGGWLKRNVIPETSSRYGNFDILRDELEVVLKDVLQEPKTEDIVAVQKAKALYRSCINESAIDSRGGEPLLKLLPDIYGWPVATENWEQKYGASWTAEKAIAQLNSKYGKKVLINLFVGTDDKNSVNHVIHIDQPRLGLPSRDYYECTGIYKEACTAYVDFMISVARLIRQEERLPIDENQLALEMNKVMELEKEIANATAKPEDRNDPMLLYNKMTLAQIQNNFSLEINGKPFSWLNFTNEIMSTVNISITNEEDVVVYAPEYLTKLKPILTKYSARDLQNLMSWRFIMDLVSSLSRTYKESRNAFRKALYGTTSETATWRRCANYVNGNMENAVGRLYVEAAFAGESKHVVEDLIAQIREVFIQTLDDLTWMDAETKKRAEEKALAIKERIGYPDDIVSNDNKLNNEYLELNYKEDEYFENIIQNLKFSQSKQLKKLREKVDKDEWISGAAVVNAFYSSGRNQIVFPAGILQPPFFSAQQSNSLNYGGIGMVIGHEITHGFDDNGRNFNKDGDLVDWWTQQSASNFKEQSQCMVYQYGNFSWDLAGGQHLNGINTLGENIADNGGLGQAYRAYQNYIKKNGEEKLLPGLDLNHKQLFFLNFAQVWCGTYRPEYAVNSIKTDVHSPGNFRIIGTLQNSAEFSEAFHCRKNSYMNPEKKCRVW

Row | Structure (SMILES) | Ki [nM]
1 | O=C(NN(Cc1ccc(-c2cccc(F)c2)cc1)C[C@@H](O)C(=O)O)c1cc(O)no1 [Example 5-1, (R)-3-[N-(3′-Fluoro-biphenyl-4-ylmethyl)-N′-(3-hydroxy-isoxazole-5-carbonyl)-hydrazino]-2-hydroxy-propionic acid] | 1.26 to 10
2 | O=C(NN(Cc1ccc(-c2cccc(C(F)(F)F)c2)cc1)C[C@@H](O)C(=O)O)c1cc(O)no1 [Example 5-2, (R)-2-Hydroxy-3-[N′-(3-hydroxy-isoxazole-5-carbonyl)-N-(3′-trifluoromethyl-biphenyl-4-ylmethyl)-hydrazino]-propionic acid] | 12.6 to 100
3 | O=C(NN(Cc1ccc(-c2cccc(O)c2)cc1)C[C@H](O)C(=O)O)c1cc(O)no1 [Example 5-3, (S)-2-Hydroxy-3-[N-(3′-hydroxy-biphenyl-4-ylmethyl)-N′-(3-hydroxy-isoxazole-5-carbonyl)-hydrazino]-propionic acid] | 1.26 to 10
4 | Cc1cccc(-c2ccc(CN(C[C@H](O)C(=O)O)NC(=O)c3cc(O)no3)cc2)c1 [Example 5-4, (S)-2-Hydroxy-3-[N′-(3-hydroxy-isoxazole-5-carbonyl)-N-(3′-methyl-biphenyl-4-ylmethyl)-hydrazino]-propionic acid] | ≤ 1
5 | COc1ccccc1-c1ccc(CN(C[C@@H](O)C(=O)O)NC(=O)c2cc(O)no2)cc1 [Example 5-5, (R)-2-Hydroxy-3-[N′-(3-hydroxy-isoxazole-5-carbonyl)-N-(2′-methoxy-biphenyl-4-ylmethyl)-hydrazino]-propionic acid] | 1.26 to 10
6 | O=C(NN(Cc1ccc(-c2ccccc2O)cc1)C[C@@H](O)C(=O)O)c1cc(O)no1 [Example 5-6, (R)-2-Hydroxy-3-[N-(2′-hydroxy-biphenyl-4-ylmethyl)-N′-(3-hydroxy-isoxazole-5-carbonyl)-hydrazino]-propionic acid] | 1.26 to 10
7 | O=C(NN(Cc1ccc(-c2ccccc2Cl)cc1)C[C@@H](O)C(=O)O)c1cc(O)no1 [Example 5-7, (R)-3-[N-(2′-Chloro-biphenyl-4-ylmethyl)-N′-(3-hydroxy-isoxazole-5-carbonyl)-hydrazino]-2-hydroxy-propionic acid] | 1.26 to 10
8 | O=C(NN(Cc1ccc(-c2ccccc2F)cc1)C[C@@H](O)C(=O)O)c1cc(O)no1 [Example 5-8, (R)-3-[N-(2′-Fluoro-biphenyl-4-ylmethyl)-N′-(3-hydroxy-isoxazole-5-carbonyl)-hydrazino]-2-hydroxy-propionic acid] | 1.26 to 10
9 | COc1ccccc1-c1ccc(CN(C[C@H](O)C(=O)O)NC(=O)c2cc(C(C)=O)n[nH]2)cc1 [Example 5-9, (S)-3-[N′-(5-Acetyl-2H-pyrazole-3-carbonyl)-N-(2′-methoxy-biphenyl-4-ylmethyl)-hydrazino]-2-hydroxy-propionic acid] | 1.26 to 10
10 | COc1ccccc1-c1ccc(CN(C[C@@H](O)C(=O)O)NC(=O)c2nnn[nH]2)cc1 [Example 5-10, (R)-2-Hydroxy-3-[N-(2′-methoxy-biphenyl-4-ylmethyl)-N′-(1H-tetrazole-5-carbonyl)-hydrazino]-propionic acid] | 1.26 to 10
11 | O=C(NN(Cc1ccc(-c2cc(Cl)ccc2F)cc1)C[C@@H](O)C(=O)O)c1nnn[nH]1 [Example 6A, (R)-3-[N-(5′-Chloro-2′-fluorobiphenyl-4-ylmethyl)-N′-(1H-tetrazole-5-carbonyl)-hydrazino]-2-hydroxypropionic Acid] | ≤ 1
12 | O=C(NN(Cc1ccc(-c2cc(Cl)ccc2Cl)cc1)C[C@@H](O)C(=O)O)c1cn(O)nn1 [Example 7A, (R)-3-[N-(2′,5′-Dichlorobiphenyl-4-ylmethyl)-N′-(1-hydroxy-H-[1,2,3]triazole-4-carbonyl)-hydrazino]-2-hydroxypropionic Acid] | ≤ 1
13 | Cc1ccc(Cl)cc1-c1ccc(CN(C[C@@H](O)C(=O)O)NC(=O)c2cc(O)no2)cc1 [Example 8-1, (R)-3-[N-(5′-Chloro-2′-methyl-biphenyl-4-ylmethyl)-N′-(3-hydroxy-isoxazole-5-carbonyl)-hydrazino]-2-hydroxy-propionic acid] | ≤ 1
14 | COc1ccc(Cl)cc1-c1ccc(CN(C[C@@H](O)C(=O)O)NC(=O)c2cc(O)no2)cc1 [Example 8-2, (R)-3-[N-(5′-Chloro-2′-methoxy-biphenyl-4-ylmethyl)-N′-(3-hydroxy-isoxazole-5-carbonyl)-hydrazino]-2-hydroxy-propionic acid] | ≤ 1
15 | COc1ccc(F)cc1-c1ccc(CN(C[C@@H](O)C(=O)O)NC(=O)c2cc(O)no2)cc1 [Example 8-4, (R)-3-[N-(5′-Fluoro-2′-methoxy-biphenyl-4-ylmethyl)-N′-(3-hydroxy-isoxazole-5-carbonyl)-hydrazino]-2-hydroxy-propionic acid] | 1.26 to 10
16 | O=C(NN(Cc1ccc(-c2cc(F)ccc2O)cc1)C[C@H](O)C(=O)O)c1cc(O)no1 [Example 8-5, (S)-3-[N-(5′-Fluoro-2′-hydroxy-biphenyl-4-ylmethyl)-N′-(3-hydroxy-isoxazole-5-carbonyl)-hydrazino]-2-hydroxy-propionic acid] | 1.26 to 10
17 | O=C(NN(Cc1ccc(-c2cc(Cl)ccc2O)cc1)C[C@H](O)C(=O)O)c1cc(O)no1 [Example 8-6, (S)-3-[N-(5′-Chloro-2′-hydroxy-biphenyl-4-ylmethyl)-N′-(3-hydroxy-isoxazole-5-carbonyl)-hydrazino]-2-hydroxy-propionic acid] | 1.26 to 10
18 | O=C(NN(Cc1ccc(-c2cccc(Cl)c2O)cc1)C[C@@H](O)C(=O)O)c1cc(O)no1 [Example 8-7, (R)-3-[N-(3′-Chloro-2′-hydroxy-biphenyl-4-ylmethyl)-N′-(3-hydroxy-isoxazole-5-carbonyl)-hydrazino]-2-hydroxy-propionic acid] | 1.26 to 10
19 | O=C(NN(Cc1ccc(-c2cc(Cl)ccc2F)cc1)C[C@@H](O)C(=O)O)c1cc(O)no1 [Example 8-8, (R)-3-[N-(5′-Chloro-2′-fluoro-biphenyl-4-ylmethyl)-N′-(3-hydroxy-isoxazole-5-carbonyl)-hydrazino]-2-hydroxy-propionic acid] | ≤ 1
20 | COc1cc(C(=O)NN(Cc2ccc(-c3cc(Cl)ccc3F)cc2)C[C@@H](O)C(=O)O)on1 [Example 8-9, (R)-3-[N-(5′-Chloro-2′-fluoro-biphenyl-4-ylmethyl)-N′-(3-methoxy-isoxazole-5-carbonyl)-hydrazino]-2-hydroxy-propionic acid] | ≤ 1
21 | O=C(NN(Cc1ccc(-c2cc(Cl)ccc2F)cc1)C[C@@H](O)C(=O)O)c1cc(-c2cccc(F)c2)no1 [Example 8-13, (R)-3-{N-(5′-Chloro-2′-fluoro-biphenyl-4-ylmethyl)-N′-[3-(3-fluoro-phenyl)-isoxazole-5-carbonyl]-hydrazino}-2-hydroxy-propionic acid] | ≤ 1
22 | CCc1cc(C(=O)NN(Cc2ccc(-c3cc(Cl)ccc3F)cc2)C[C@@H](O)C(=O)O)on1 [Example 8-14, (R)-3-[N-(5′-Chloro-2′-fluoro-biphenyl-4-ylmethyl)-N′-(3-ethyl-isoxazole-5-carbonyl)-hydrazino]-2-hydroxy-propionic acid] | ≤ 1
23 | COc1ccccc1-c1cc(C(=O)NN(Cc2ccc(-c3cc(Cl)ccc3F)cc2)C[C@@H](O)C(=O)O)on1 [Example 8-15, (R)-3-{N-(5′-Chloro-2′-fluoro-biphenyl-4-ylmethyl)-N′-[3-(2-methoxy-phenyl)-isoxazole-5-carbonyl]-hydrazino}-2-hydroxy-propionic acid] | ≤ 1
24 | O=C(NN(Cc1ccc(-c2cc(Cl)ccc2F)cc1)C[C@@H](O)C(=O)O)c1cc(-c2cccc(Cl)c2)no1 [Example 8-16, (R)-3-{N-(5′-Chloro-2′-fluoro-biphenyl-4-ylmethyl)-N′-[3-(3-chloro-phenyl)-isoxazole-5-carbonyl]-hydrazino}-2-hydroxy-propionic acid] | ≤ 1
25 | O=C(NN(Cc1ccc(-c2cc(Cl)ccc2F)cc1)C[C@@H](O)C(=O)O)c1cc(-c2ccccc2Cl)no1 [Example 8-17, (R)-3-{N-(5′-Chloro-2′-fluoro-biphenyl-4-ylmethyl)-N′-[3-(2-chloro-phenyl)-isoxazole-5-carbonyl]-hydrazino}-2-hydroxy-propionic acid] | ≤ 1
26 | O=C(NN(Cc1ccc(-c2cc(Cl)ccc2F)cc1)C[C@@H](O)C(=O)O)c1cc(-c2ccccc2F)no1 [Example 8-18, (R)-3-{N-(5′-Chloro-2′-fluoro-biphenyl-4-ylmethyl)-N′-[3-(2-fluoro-phenyl)-isoxazole-5-carbonyl]-hydrazino}-2-hydroxy-propionic acid] | ≤ 1
27 | O=C(NN(Cc1ccc(-c2cccc(Cl)c2F)cc1)C[C@@H](O)C(=O)O)c1cc(O)no1 [Example 8-21, (R)-3-[N-(3′-Chloro-2′-fluoro-biphenyl-4-ylmethyl)-N′-(3-hydroxy-isoxazole-5-carbonyl)-hydrazino]-2-hydroxy-propionic acid] | 1.26 to 10
28 | O=C(NN(Cc1ccc(-c2cc(Cl)ccc2Cl)cc1)C[C@H](O)C(=O)O)c1cc(O)no1 [Example 8-22, (S)-3-[N-(2′,5′-Dichloro-biphenyl-4-ylmethyl)-N′-(3-hydroxy-isoxazole-5-carbonyl)-hydrazino]-2-hydroxy-propionic acid] | ≤ 1
29 | Cc1cc(Cl)cc(-c2ccc(CN(C[C@H](O)C(=O)O)NC(=O)c3cc(O)no3)cc2)c1F [Example 8-23, (S)-3-[N-(5′-Chloro-2′-fluoro-3′-methyl-biphenyl-4-ylmethyl)-N′-(3-hydroxy-isoxazole-5-carbonyl)-hydrazino]-2-hydroxy-propionic acid] | 1.26 to 10
30 | O=C(NN(Cc1ccc(-c2cc(F)cc(Cl)c2)cc1)C[C@H](O)C(=O)O)c1cc(O)no1 [Example 8-24, (S)-3-[N-(5′-Chloro-3′-fluoro-biphenyl-4-ylmethyl)-N′-(3-hydroxy-isoxazole-5-carbonyl)-hydrazino]-2-hydroxy-propionic acid] | 1.26 to 10
